Reference: patent publication US11013745B2, “Triazolopyrimidine, triazolopyridine compounds, and the composition thereof for treating PRC2-mediated diseases” (SHANGHAI INSTITUTE OF MATERIA MEDICA, CHINESE ACADEMY OF …, priority 2017, dated 2021)
Where two headings read alike, the source gives them in different places.

What was measured:
Pfeiffer cells [1] = experiment: Pfeiffer cell growth inhibition in a long term (11 days), CellTiter-Glo; assay type: cell-based, Human; conditions: Homo sapiens, 264 h, 11 days, read-out: Experiment on Pfeiffer cell growth inhibition in a long term (11 days IC50)
Procedure: Pfeiffer cells in exponential growth phase were seeded in a 24-well plate with a cell density of 1*10E5 cells/mL. Cells were treated on the same day with the compounds at different concentrations. At day 4 and day 7 of compound treatment, fresh media and compounds were changed. After treated with the compounds for 11 days, cell viability was measured using CellTiter-Glo reagent (Promega Corporation). The data was analyzed using GraphPad Prism 5.0 software and GI50 values were obtained.

[2] = Liver microsomal stability (human); assay type: in vitro ADME
Procedure: (§1) 1. JANUS and temperature control device was turned on. After being initialized, the pipes were flushed until there was no air bubble in the pipes.
(§2) 2. Preparation of buffers used for the experiment
(§3) Preparation of Tris pH 7.4 buffer (0.1 M): 12.12 g of Tris was dissolved in 1000 mL of H2O, the resulting solution was adjusted to pH 7.4 with 2N HCl, aliquoted at 50 mL per tube, and stored at −20° C.
(§4) Preparation of H2O/0.1% BSA buffer: 200 μL of 25% BSA was added to 50 mL of H2O.
(§5) Preparation of VIVID stock solution: 1 mg of VIVID was dissolved in 1 mL of acetonitrile, aliquoted at 50 μL per tube, and stored at −20° C.
(§6) Preparation of MgCl2 solution (100 mM): 1.016 g of MgCl2 was dissolved in 50 mL Tris pH 7.4 buffer, and aliquoted at 1 mL per tube, and stored at −20° C.
(§7) Preparation of NADPH solution (10 mM): 355 mg of NADPH was dissolved in 42.6 mL of Tris pH 7.4 buffer, aliquoted at 1.8 mL per tube, and stored at −20° C.
(§8) Preparation of Blank control: 7.937 mL of Tris, 163 μL of RLM, 450 μL of MgCl2 solution, 450 μL of NADPH solution and 9 mL of methanol were mixed uniformly, aliquoted at 1 mL per tube, and stored at −20° C.
(§9) 3. Preparation of Compound Working Solution
(§10) Dilution step 1:10 μL of compound stock solution was added to 90 μL of DMSO=1 mM stock solution.
(§11) Dilution step 2: 2 μL of 1 mM stock solution was added to 1 mL of H2O/0.1%6 BSA buffer=[…] working solution.
(§12) Dilution step 3: 245 μL of the working solution was added to a 96-well compound plate and added with 5 μL of VIVID stock solution.
(§13) The 96-well compound plate was shaken on a shaker for 5 min.
(§14) 4. The STM in the JANUS in the computer was open to run the EXCEL file, and the JANUS program was operated and run by following the instructions in the EXCEL file.
(§15) 5. After the JANUS program was finished, acetonitrile/water 50:50 (V/V) was added to column 20 of the 384-well black plate, and blank control was added to column 21 of the 384-well black plate.
(§16) 6. the plate (420 nm-465 nm) was read on a microplate reader to determine the VIVID fluorescence intensity.
(§17) 7. After the plate was sealed, shaken and centrifuged, the sample plate was subjected to the LC/MS instrument for sample analysis.
(§18) A profile of the logarithmic value of the remaining rate of the drug in the incubation system versus the incubation time was plotted, and the slope k was obtained by linear regression. The intrinsic clearance rate in vivo (Clint, mL/min/g) value, the clearance rate in vivo (Cl, mL)/min), liver clearance (Clhep, mL/min) and metabolic bioavailability (% MF) were predicted according to the following equations: […]

PRC2 enzyme = PRC2 enzyme (Homo sapiens (Human), UniProt O75530); experiment: PRC2 enzyme activity, TR-FRET method; assay type: biochemical
Procedure: The TR-FRET method was used to measure the PRC2 enzyme activity. First, the enzyme was mixed with compounds at different concentrations and incubated for 30 min at room temperature. The biotin-labeled histone H3 peptide substrate and the cofactor S-adenosylmethionine (SAM) were added to initiate the enzymatic reaction. After reaction was performed at room temperature for 4 hour, Acceptor and Donor were added and incubated for half an hour. The multifunctional microplate reader EnVision (Perkin Elmer Inc.) was used to detect the fluorescence signal. Data were analyzed using GraphPad Prism 5.0 software, and IC50 values were obtained.

[3] = Liver microsomal stability (mouse); assay type: in vitro ADME
[4] = Liver microsomal stability (rat); assay type: in vitro ADME
Procedure: as §1, §2, §3, §4, §5, §6, §7, §8, §9, §10, §11, §12, §13, §14, §15, §16, §17, §18

Karpas-422 cells = experiment: Growth inhibition of Karpas-422 cells in a long term (11 days), CellTiter-Glo; assay type: cell-based, Human; conditions: Homo sapiens, 264 h; Karpas-422, 11 days; read-out: Karpas-422 (11 days) IC50
Pfeiffer cells [5] = experiment: Growth inhibition of Pfeiffer cells in a long term (14 days), CellTiter-Glo; assay type: cell-based, Human; conditions: Homo sapiens, 336 h, 14 days, read-out: Pfeiffer (14 days) IC50
Procedure: In a CO2 cell incubator (37° C., 5% CO2), Human diffuse large B-cell lymphoma (DLBCL) cell line, pfeiffer (obtained from ATCC, CRL-2632) were incubated with RPMI 1640 medium (Gibco, purchased from Life Technologies, 22400-089) containing 10% fetal bovine serum (Gibco, purchased from Life Technologies, 10099-141) and 1% antibiotics (penicillin and streptomycin, purchased from Life Technologies, 10378016). […] After seeding the cells, they were placed in a CO2 incubator and allowed to stand for 1 hour. In a 24-well plate containing cells, 2 μL of three-fold gradient of the compounds at 9 different concentrations or DMSO were added to each well, such that the final concentration of the compounds was 0.003-20 μM or 0.3-2000 nM, and the final concentration of DMSO was 0.2%. At day 4, day 7, and day 11 of compound treatment, the fresh medium and compounds were changed, and the cell density of the DMSO control well was diluted to 2*10E5 cells/mL. The cell dilution ratio for other compound wells was the same as that of the DMSO control well. Cell viability was determined by using CellTiter-Glo reagent (purchased from Promega Inc., G7572): cells treated with the compounds for 14 days were transferred to a white 384-well plate (OptiPlate-384, purchased from PerkinElmer, 6007299) at 40 μL/well, an equal volume of CellTiter-Glo reagent was further added. After incubating at room temperature for 10 min, the cold luminescence signal was detected with a multifunctional microplate reader EnVision (PerkinElmer) at a wavelength of 400 to 700 nm. Data were analyzed using GraphPad Prism 5.0 software, and IC50 values were obtained.

[6] = human, liver microsomes, pH 7.4, human liver microsomes, read-out: Half life T-half
[7] = human, liver microsomes, pH 7.4, human liver microsomes, read-out: Metabolic bioavailability MF %
[8] = mouse, liver microsomes, pH 7.4, mouse liver microsomes, read-out: Half life T-half
[9] = rat, liver microsomes, pH 7.4, rat liver microsomes, read-out: Half life T-half

PRC2 enzyme, sequence (O75530 whole entry): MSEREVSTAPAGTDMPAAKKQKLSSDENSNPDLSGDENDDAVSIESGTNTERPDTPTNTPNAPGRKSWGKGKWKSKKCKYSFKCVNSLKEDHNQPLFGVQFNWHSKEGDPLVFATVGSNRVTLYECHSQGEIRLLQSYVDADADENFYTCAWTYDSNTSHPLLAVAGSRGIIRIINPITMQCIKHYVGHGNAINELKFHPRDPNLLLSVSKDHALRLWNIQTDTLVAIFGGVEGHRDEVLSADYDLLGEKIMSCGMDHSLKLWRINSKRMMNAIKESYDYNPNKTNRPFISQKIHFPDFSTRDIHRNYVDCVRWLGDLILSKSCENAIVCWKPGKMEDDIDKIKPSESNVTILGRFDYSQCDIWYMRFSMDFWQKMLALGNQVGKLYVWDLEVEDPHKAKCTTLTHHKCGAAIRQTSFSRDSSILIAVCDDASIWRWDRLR
PRC2 enzyme, sequence (Q15910 whole entry partner): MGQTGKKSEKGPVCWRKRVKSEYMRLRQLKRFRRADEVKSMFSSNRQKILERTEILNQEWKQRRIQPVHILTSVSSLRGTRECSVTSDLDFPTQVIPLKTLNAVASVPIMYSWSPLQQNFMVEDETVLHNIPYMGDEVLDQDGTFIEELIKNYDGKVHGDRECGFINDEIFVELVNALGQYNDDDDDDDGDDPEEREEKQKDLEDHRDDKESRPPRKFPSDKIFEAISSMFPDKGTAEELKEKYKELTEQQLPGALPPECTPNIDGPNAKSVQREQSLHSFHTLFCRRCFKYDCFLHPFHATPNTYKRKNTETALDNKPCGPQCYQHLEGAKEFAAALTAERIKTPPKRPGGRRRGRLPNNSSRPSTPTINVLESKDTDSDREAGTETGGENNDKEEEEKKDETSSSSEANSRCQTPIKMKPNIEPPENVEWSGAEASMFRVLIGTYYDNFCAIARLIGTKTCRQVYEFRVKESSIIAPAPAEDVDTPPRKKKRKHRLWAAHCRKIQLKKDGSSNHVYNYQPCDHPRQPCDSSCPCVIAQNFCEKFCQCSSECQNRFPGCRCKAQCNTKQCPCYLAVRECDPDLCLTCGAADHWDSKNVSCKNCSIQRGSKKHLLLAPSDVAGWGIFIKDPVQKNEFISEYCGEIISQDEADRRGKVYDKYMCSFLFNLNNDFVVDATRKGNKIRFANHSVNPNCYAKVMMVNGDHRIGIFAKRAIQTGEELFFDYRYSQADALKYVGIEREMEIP
PRC2 enzyme, sequence (Q15022 whole entry partner): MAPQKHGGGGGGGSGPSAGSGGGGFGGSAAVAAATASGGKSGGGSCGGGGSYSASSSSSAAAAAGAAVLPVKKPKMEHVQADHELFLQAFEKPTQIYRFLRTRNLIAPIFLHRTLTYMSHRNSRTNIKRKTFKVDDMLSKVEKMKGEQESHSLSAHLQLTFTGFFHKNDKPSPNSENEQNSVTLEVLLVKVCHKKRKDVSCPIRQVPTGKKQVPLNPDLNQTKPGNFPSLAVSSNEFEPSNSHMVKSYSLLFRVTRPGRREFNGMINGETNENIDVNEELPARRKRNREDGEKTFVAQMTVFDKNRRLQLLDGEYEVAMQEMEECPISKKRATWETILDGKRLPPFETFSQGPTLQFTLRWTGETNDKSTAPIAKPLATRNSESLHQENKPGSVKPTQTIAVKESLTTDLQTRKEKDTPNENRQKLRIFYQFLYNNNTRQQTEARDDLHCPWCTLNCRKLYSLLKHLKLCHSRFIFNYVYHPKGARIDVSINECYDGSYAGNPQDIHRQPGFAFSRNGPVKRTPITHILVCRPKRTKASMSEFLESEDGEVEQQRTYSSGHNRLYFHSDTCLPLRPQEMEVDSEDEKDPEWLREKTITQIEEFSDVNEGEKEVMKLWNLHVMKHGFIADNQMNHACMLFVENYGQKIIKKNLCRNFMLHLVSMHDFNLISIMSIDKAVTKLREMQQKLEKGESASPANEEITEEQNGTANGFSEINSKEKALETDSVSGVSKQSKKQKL

Compound: O=C(C1CCOCC1)N1CC=C(c2cnc(NCc3c(F)ccc4c3CCO4)n3cnnc23)CC1 [E-Y43]
- IC50 (Pfeiffer cells [1]): 3.3 nM
- Clearance rate in vivo Clint In Vivo Extpl ([2]; human liver microsomes): 1464 mL/min
- Intrinsic clearance rate in vivo Clint In Vitro ([2]; human liver microsomes): 19.1 mL/min/gprot
- Liver clearance rate Clint Hep In Vivo Extpl ([2]; human liver microsomes): 741 mL/min
- half-life [2, 6]: 1.83 h
- bioavailability [2, 7]: 50.6%
- IC50 (PRC2 enzyme): 8.5 nM
- Clearance rate in vivo Clint In Vivo Extpl ([3]; mouse liver microsomes): 10.9 mL/min
- Intrinsic clearance rate in vivo Clint In Vitro ([3]; mouse liver microsomes): 161 mL/min/gprot
- Liver clearance rate Clint Hep In Vivo Extpl ([3]; mouse liver microsomes): 2.35 mL/min
- Metabolic bioavailability MF % ([3]; mouse liver microsomes): 21.6%
- half-life [3, 8]: 0.217 h
- Clearance rate in vivo Clint In Vivo Extpl ([4]; rat liver microsomes): 44.8 mL/min
- Intrinsic clearance rate in vivo Clint In Vitro ([4]; rat liver microsomes): 99.6 mL/min/gprot
- Liver clearance rate Clint Hep In Vivo Extpl ([4]; rat liver microsomes): 13.8 mL/min
- Metabolic bioavailability MF % ([4]; rat liver microsomes): 30.9%
- half-life [4, 9]: 0.352 h

Compound: CN1CC=C(c2cnc(NCc3c(F)ccc4c3CCO4)n3cnnc23)CC1 [SL-E23]
- IC50 (Pfeiffer cells [1]): 7.7 nM
- IC50 (Karpas-422 cells): 2.8 nM
- Clearance rate in vivo Clint In Vivo Extpl ([2]; human, microsomes): 807 mL/min
- Intrinsic clearance rate in vivo Clint In Vitro ([2]; human, microsomes): 10.5 mL/min/gprot
- Liver clearance rate Clint Hep In Vivo Extpl ([2]; human, microsomes): 525 mL/min
- half-life ([2]; human, microsomes, pH 7.4, Half life T-half): 3.32 h
- bioavailability ([2]; human, pH 7.4, Metabolic bioavailability MF %): 65%
- IC50 (PRC2 enzyme): 4.7 nM
- Clearance rate in vivo Clint In Vivo Extpl ([3]; mouse, microsomes): 3.67 mL/min
- Intrinsic clearance rate in vivo Clint In Vitro ([3]; mouse, microsomes): 54.4 mL/min/gprot
- Liver clearance rate Clint Hep In Vivo Extpl ([3]; mouse, microsomes): 1.65 mL/min
- half-life ([3]; mouse, microsomes, pH 7.4, Half life T-half): 0.643 h
- Metabolic bioavailability MF % ([3]; mouse, pH 7.4): 45.0%
- IC50 (Pfeiffer cells [5]): 2 nM
- Clearance rate in vivo Clint In Vivo Extpl ([4]; rat, microsomes): 15.8 mL/min
- Intrinsic clearance rate in vivo Clint In Vitro ([4]; rat, microsomes): 35.0 mL/min/gprot
- Liver clearance rate Clint Hep In Vivo Extpl ([4]; rat, microsomes): 8.81 mL/min
- half-life ([4]; rat, microsomes, pH 7.4, Half life T-half): 1 h
- Metabolic bioavailability MF % ([4]; rat, pH 7.4): 55.9%

Compound: O=S1(=O)CC=C(c2cnc(NCc3c(F)ccc4c3CCO4)n3cnnc23)CC1 [SL-ZYE-09]
- IC50 (PRC2 enzyme): 4.5 nM
- IC50 (Pfeiffer cells [5]): 3.2 nM

Compound: CC1C=C(c2cnc(NCc3c(F)ccc4c3CCO4)n3cnnc23)CC(C)O1 (stereo not drawn) [SL-ZYE-24]
- IC50 (PRC2 enzyme): 8.3 nM
- IC50 (Pfeiffer cells [5]): 6 nM

Compound: Fc1ccc2c(c1CNc1ncc(C3=CCOc4ccccc43)c3nncn13)CCO2 [SL-ZYE-28]
- IC50 (PRC2 enzyme): 22.5 nM
- IC50 (Pfeiffer cells [5]): 10 nM

Compound: CC(=O)N1CCC(c2cnc(NCc3c(F)ccc4c3CCO4)n3cnnc23)CC1 [E-Y50]
- IC50 (Pfeiffer cells [1]): 3.8 nM
- Clearance rate in vivo Clint In Vivo Extpl ([2]; human liver microsomes): 174 mL/min
- Intrinsic clearance rate in vivo Clint In Vitro ([2]; human liver microsomes): 2.28 mL/min/gprot
- Liver clearance rate Clint Hep In Vivo Extpl ([2]; human liver microsomes): 156 mL/min
- half-life [2, 6]: 15.4 h
- bioavailability [2, 7]: 89.6%
- IC50 (PRC2 enzyme): 5.3 nM
- Clearance rate in vivo Clint In Vivo Extpl ([3]; mouse liver microsomes): 0.921 mL/min
- Intrinsic clearance rate in vivo Clint In Vitro ([3]; mouse liver microsomes): 13.6 mL/min/gprot
- Liver clearance rate Clint Hep In Vivo Extpl ([3]; mouse liver microsomes): 0.705 mL/min
- Metabolic bioavailability MF % ([3]; mouse liver microsomes): 76.5%
- half-life [3, 8]: 2.57 h
- Clearance rate in vivo Clint In Vivo Extpl ([4]; rat liver microsomes): 10.9 mL/min
- Intrinsic clearance rate in vivo Clint In Vitro ([4]; rat liver microsomes): 24.2 mL/min/gprot
- Liver clearance rate Clint Hep In Vivo Extpl ([4]; rat liver microsomes): 7.05 mL/min
- Metabolic bioavailability MF % ([4]; rat liver microsomes): 64.8%
- half-life [4, 9]: 1.45 h

Compound: Cc1cc(C(=O)N2CC=C(c3cnc(NCc4c(F)ccc5c4CCO5)n4cnnc34)CC2)n(C)n1 [E-Y42]
- IC50 (Pfeiffer cells [1]): 3.6 nM
- IC50 (Karpas-422 cells): 10 nM
- IC50 (PRC2 enzyme): 4.8 nM
- IC50 (Pfeiffer cells [5]): 1.5 nM

Compound: CC(=O)N1CC=C(c2cnc(NCc3ccco3)n3cnnc23)CC1 [E-Y20]
- IC50 (Pfeiffer cells [1]): 158 nM
- IC50 (PRC2 enzyme): 166 nM

Compound: O=C(CN1CCOCC1)N1CC=C(c2cnc(NCc3c(F)ccc4c3CCO4)n3cnnc23)CC1 [E-Y40]
- IC50 (Pfeiffer cells [1]): 5.4 nM
- Clearance rate in vivo Clint In Vivo Extpl ([2]; human liver microsomes): 2522 mL/min
- Intrinsic clearance rate in vivo Clint In Vitro ([2]; human liver microsomes): 33.0 mL/min/gprot
- Liver clearance rate Clint Hep In Vivo Extpl ([2]; human liver microsomes): 941 mL/min
- half-life [2, 6]: 1.06 h
- bioavailability [2, 7]: 37.3%
- IC50 (PRC2 enzyme): 16.1 nM
- Clearance rate in vivo Clint In Vivo Extpl ([3]; mouse liver microsomes): 23.2 mL/min
- Intrinsic clearance rate in vivo Clint In Vitro ([3]; mouse liver microsomes): 344 mL/min/gprot
- Liver clearance rate Clint Hep In Vivo Extpl ([3]; mouse liver microsomes): 2.66 mL/min
- Metabolic bioavailability MF % ([3]; mouse liver microsomes): 11.4%
- half-life [3, 8]: 0.102 h
- Clearance rate in vivo Clint In Vivo Extpl ([4]; rat liver microsomes): 59.6 mL/min
- Intrinsic clearance rate in vivo Clint In Vitro ([4]; rat liver microsomes): 133 mL/min/gprot
- Liver clearance rate Clint Hep In Vivo Extpl ([4]; rat liver microsomes): 15.0 mL/min
- Metabolic bioavailability MF % ([4]; rat liver microsomes): 25.1%
- half-life [4, 9]: 0.265 h

Compound: CC(C)(C)NC(=O)N1CCC(c2cnc(NCc3c(F)ccc4c3CCO4)n3cnnc23)CC1 [E-Y49]
- IC50 (Pfeiffer cells [1]): 10 nM
- IC50 (PRC2 enzyme): 6.6 nM

Compound: CC1(C)CC(c2cnc(NCc3c(F)ccc4c3CCO4)n3cnnc23)=CCO1 [SL-ZYE-119]
- IC50 (Pfeiffer cells [1]): 8.1 nM
- IC50 (PRC2 enzyme): 23.3 nM
- IC50 (Pfeiffer cells [5]): 4 nM
